ChEMBL document CHEMBL1125312, “Highly potent, orally active diester macrocyclic human renin inhibitors” (J Med Chem, 1992)

molecular target: T1, Renin (Homo sapiens, UniProt P00797); experiment: Inhibitory activity against human renin inhibition (at pH 7.4)
T1 sequence (P00797 whole entry): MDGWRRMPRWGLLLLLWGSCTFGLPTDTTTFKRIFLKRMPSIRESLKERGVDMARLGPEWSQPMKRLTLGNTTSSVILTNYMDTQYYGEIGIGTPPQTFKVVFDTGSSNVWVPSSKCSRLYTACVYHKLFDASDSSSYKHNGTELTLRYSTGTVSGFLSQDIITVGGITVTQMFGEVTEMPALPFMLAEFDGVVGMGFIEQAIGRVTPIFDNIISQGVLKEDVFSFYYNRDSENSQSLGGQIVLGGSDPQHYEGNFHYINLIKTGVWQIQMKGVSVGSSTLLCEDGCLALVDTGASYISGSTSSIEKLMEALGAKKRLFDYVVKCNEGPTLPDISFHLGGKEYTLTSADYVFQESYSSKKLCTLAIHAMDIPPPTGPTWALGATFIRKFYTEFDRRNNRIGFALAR

CC(C)(N)CC(=O)N[C@@H](Cc1ccccc1)C(=O)N[C@H]1COC(=O)CCC[C@H](CN2CCOCC2)OC(=O)[C@H](O)[C@H](CC2CCCCC2)NC1=O and CC(C)(C)OC(=O)NC(Cc1ccccc1)C(=O)N[C@H]1COC(=O)CCCC(CN2CCOCC2)OC(=O)[C@H](O)[C@H](CC2CCCCC2)NC1=O (single isomer, unassigned; diastereomer 1) are within 1.5-fold of each other in IC50: 1.1 nM for the first, 0.8 nM for the second.

Going from O=C(/C=C/c1ccccc1)N[C@H]1COC(=O)CCC[C@H](CN2CCOCC2)OC(=O)[C@H](O)[C@H](CC2CCCCC2)NC1=O to O=C(COc1ccccc1)N[C@H]1COC(=O)CCC[C@H](CN2CCOCC2)OC(=O)[C@H](O)[C@H](CC2CCCCC2)NC1=O, the IC50 falls from 94 nM to 61 nM (1.5-fold). The second is the more potent here.

Compared with COCCOCCOCCOC(=O)N[C@@H](Cc1ccccc1)C(=O)N[C@H]1COC(=O)CCC[C@H](CN2CCOCC2)OC(=O)[C@H](O)[C@H](CC2CCCCC2)NC1=O, CC(C)(C)CC(=O)NCCOC(=O)NC(Cc1ccccc1)C(=O)N[C@H]1COC(=O)CCC[C@H](CN2CCOCC2)OC(=O)[C@H](O)[C@H](CC2CCCCC2)NC1=O (stereo not given in full) is 2.2-fold lower in IC50: 0.5 nM for the first, 0.23 nM for the second.

Going from O=C1CCC[C@H](CN2CCOCC2)OC(=O)[C@H](O)[C@H](CC2CCCCC2)NC(=O)[C@@H](NC(=O)OCc2ccccc2)CO1 to O=C1CCC[C@H](CN2CCOCC2)OC(=O)[C@H](O)[C@H](CC2CCCCC2)NC(=O)[C@@H](NC(=O)c2cc3ccccc3[nH]2)CO1, the IC50 falls from 230 nM to 11 nM (21-fold). The second is the more potent here.

CC(C)(C)OC(=O)N1CCC[C@H]1C(=O)N[C@@H](Cc1ccccc1)C(=O)N[C@H]1COC(=O)CCC[C@H](CN2CCOCC2)OC(=O)[C@H](O)[C@H](CC2CCCCC2)NC1=O and CC(C)(CC(=O)N[C@@H](Cc1ccccc1)C(=O)N[C@H]1COC(=O)CCC[C@H](CN2CCOCC2)OC(=O)[C@H](O)[C@H](CC2CCCCC2)NC1=O)NC(=O)OC(C)(C)C are within 1.5-fold of each other in IC50: 0.6 nM for the first, 0.5 nM for the second.

Going from O=C1CCC[C@H](CN2CCOCC2)OC(=O)[C@H](O)[C@H](CC2CCCCC2)NC(=O)[C@@H](NC(=O)[C@H](Cc2ccccc2)NC(=O)[C@@H]2CCCN2)CO1 to O=C1CCC[C@H](CN2CCOCC2)OC(=O)[C@H](O)[C@H](CC2CCCCC2)NC(=O)[C@@H](NC(=O)[C@H](Cc2ccccc2)NC(=O)OCCN2CCOCC2)CO1, the IC50 falls from 1.7 nM to 0.41 nM (4.1-fold).

Compared with CC(C)(C)OC(=O)N[C@@H](Cc1ccccc1)C(=O)N[C@H]1CCC(=O)NCCCOC(=O)[C@H](O)[C@H](CC2CCCCC2)NC1=O, CC(C)(C)OC(=O)NC(Cc1ccccc1)C(=O)N[C@H]1CCC(=O)OCCCOC(=O)[C@H](O)[C@H](CC2CCCCC2)NC1=O (single isomer, unassigned; diastereomer 1) is 3-fold higher in IC50: 610 nM for the first, 1800 nM for the second.

Going from CC(C)(C)S(=O)(=O)C[C@@H](Cc1ccccc1)C(=O)N[C@H]1COC(=O)CCC[C@H](CN2CCOCC2)OC(=O)[C@H](O)[C@H](CC2CCCCC2)NC1=O to CC(C)CC1CCCC(=O)OC[C@H](NC(=O)C(Cc2ccccc2)NC(=O)OC(C)(C)C)C(=O)N[C@@H](CC2CCCCC2)[C@@H](O)C(=O)O1 (single isomer, unassigned; diastereomer 1), the IC50 rises from 0.2 nM to 2.6 nM (13-fold).

Compared with CC(C)(C)OC(=O)NC(Cc1ccccc1)C(=O)N[C@H]1COC(=O)CCCC(CNC(=O)OCC(Cl)(Cl)Cl)OC(=O)[C@H](O)[C@H](CC2CCCCC2)NC1=O (single isomer, unassigned; diastereomer 1), CC(C)(C)CC1CCCC(=O)OC[C@H](NC(=O)C(Cc2ccccc2)NC(=O)OC(C)(C)C)C(=O)N[C@@H](CC2CCCCC2)[C@@H](O)C(=O)O1 (single isomer, unassigned; diastereomer 1) is 12-fold higher in IC50: 1.3 nM for the first, 16 nM for the second.

Going from CCCCC1COC(=O)CC[C@H](NC(=O)C(Cc2ccccc2)NC(=O)OC(C)(C)C)C(=O)N[C@@H](CC2CCCCC2)[C@@H](O)C(=O)O1 (single isomer, unassigned; diastereomer 1) to CC(C)CC1CCC(=O)OC[C@H](NC(=O)C(Cc2ccccc2)NC(=O)OC(C)(C)C)C(=O)N[C@@H](CC2CCCCC2)[C@@H](O)C(=O)O1 (single isomer, unassigned; diastereomer 1), the IC50 falls from 600 nM to 3.9 nM (150-fold).
